Assay results published in patent US20230398334A1, “COATED BALLOON CATHETER FOR TREATING ARTERIOVENOUS FISTULA AND METHODS OF USING SAME” (Alucent Biomedical, Inc., priority 2022, published 2023).

Tested on: arteriovenous fistula (AVF)
Experiment: Treatment of an AVF with the active agent (NVS treatment)
Assay type: in vivo

NCCOCCOCCNc1ccc2c3c(cccc13)C(=O)N(CCOCCOCCN1C(=O)c3cccc4c(NCCOCCOCCN)ccc(c34)C1=O)C2=O [Compound of Formula (I), 2,2′-((ethane-1,2-diylbis(oxy))bis(ethane-2,1-diyl))bis(6-((2-(2-(2-aminoethoxy)ethoxy)ethyl)amino)-1H-benzo[de]isoquinoline-1,3(2H)-dione)]
AVF open lumen area: significant increase | area of neointimal hyperplasia: without significantly affecting
